According to patent US8772348B2, “Materials and methods for pest control” (priority 2009, dated 2014):
Where two headings read alike, the source gives them in different places.

How the values were obtained:
[1] = tested on: Susceptible Musca domestica; assay: Contact bioassay of emulsified concentrate formulations on filter paper discs; settings: EC formulation on filter paper
Procedure: (§1) A commercially-available permethrin 57 g L^−1 EC (Ectiban EC 57; Universal Cooperatives, Minneapolis, Minn.) was included for comparison. Except rosalva, the 50% EC semiochemical formulations were generated by combining 500 mL AI, 430 mL canola oil (Publix, Lakeland, Fla.), 10 mL xylene, 50 mL Triton X-100 (Acros Organics Nev., Fair Lawn, N.J.) and 10 mL Agsolex-8 (International Specialty Products, Wayne, N.J.). The rosalva formulation contained all of the above-mentioned ingredients, with canola oil concentration reduced to 400 mL L^−1, Triton X-100 concentration increased to 75 mL L^−1, and 5 mL L^−1 Antifoam B silicone emulsion (Mallinckrodt Baker, Phillipsburg, N.Y.) included.
Briefly, Whatman No. 1 filter paper discs (63.58 cm^2) are impregnated with 1.5 ml serially diluted formulations in 20 emulsified concentrates and 50 emulsified concentrates, respectively, and subsequently dried for about an hour. Then, house flies are divided into seven sets: three sets as the experiment, three sets as the positive control, and one set as the negative control. Each set consists of twenty six-to-ten-day old adult flies. […] The positive control set is exposed to paper discs impregnated with geranyl acetone, rosalva or citronellol. The negative control set is exposed to paper discs impregnated with acetone solution. Throughout the exposure periods, each set is provided with 10% sucrose solution and sufficient air circulation. Ataxic flies are considered dead. The mortality rate and the LC values are determined using the same procedures as is illustrated in Example 2.

Aedes aegypti [2] = settings: formulation on military fabric at LC99-based concentration, 2 h exposure, mortality 24 h after initial exposure
Procedure: Briefly, after mosquitoes are exposed to formulations for 2 hours at a concentration of LC99, each set is transferred into a separate glass jar, and held for another 24 hours. The mortality rate is measured with new mosquitoes on post-treatment days 2, 3, 5, 8 and 14 (Day 1 starts at 24 hours after the transfer), and is determined using the same procedures as are illustrated in Example 2.
Concentrations were generated from technical-based LC99 values obtained from a 2 h exposure period on military fabric. Fabric was treated on day 0 and was held until exposure on post-treatment day. Mosquitoes were exposed for 2 h, and mortality rate was assessed 24 h after initial exposure. Control contained formulation ingredients without semiochemicals.

Aedes aegypti [3] = settings: EC formulation on military fabric
Procedure: as §1
Briefly, a piece of 10×10 cm^2 fabric (TenCate Defender™) is impregnated with 2 ml of serially diluted 20-emulsifiable concentrate or 50-emulsifiable concentrate formulations, respectively, and subsequently dried for about an hour. Also, six-to-ten-day-old, never blood-fed, adult female Ae. aegypti mosquitoes are obtained. The mosquitoes are divided into seven sets: three sets as the experiment, three sets as the positive control, and one set as the negative control. Each set consists of 20 mosquitoes. […] The positive control set is exposed to fabric pieces treated with geranyl acetone, rosalva or citronellol. The negative control set is exposed to fabric pieces treated with acetone solution. Throughout the exposure periods, each set is provided with 10% sucrose solution and sufficient air circulation. Ataxic mosquitoes are considered dead. The mortality rate and the LC values are determined using the same procedures as are illustrated in Example 2.

Aedes aegypti [4] = settings: formulation on plywood panels at 1.67 mg cm^−2, 2 h exposure, mortality 24 h after initial exposure
Procedure: Briefly, after mosquitoes are assayed on unpainted plywood panel boards with formulation at a concentration of 1.67 mg cm^−2 for 2 hours, they are transferred into a separate glass jar, and held for another 24 hours. The mortality rate is measured daily for a continuous 4 days (Day 1 starts at 24 hours after the transfer), as is determined using the same procedures as are illustrated in Example 2.
Plywood panels (225 cm^2) were treated with chemicals at a rate of 1.67 mg cm^−2. Panels were treated on day 0 and was held until exposure on post-treatment day. Mosquitoes were exposed to chemicals for 2 h, and mortality rate was assessed 24 h after initial exposure. Control contained formulation ingredients without semiochemicals.

| Structure (SMILES) | LC90 ([1]; 24 h constant exposure) [μg cm^−2] | LC90 ([1]; 48 h constant exposure) [μg cm^−2] | % mortality on various days following treatment (Aedes aegypti [2]; day 1) [a %] | % mortality on various days following treatment (Aedes aegypti [2]; day 2) [a %] | % mortality on various days following treatment (Aedes aegypti [2]; day 5) [b %] | % mortality on various days following treatment (Aedes aegypti [2]; day 14) | LC90 (Aedes aegypti [3]; exposure period 2 hours) [μg cm^−2] | LC90 (Aedes aegypti [3]; exposure period 4 hours) [μg cm^−2] | LC90 (Aedes aegypti [3]; exposure period 24 hours) [μg cm^−2] | % mortality on various days following treatment (Aedes aegypti [4]; day 1) | % mortality on various days following treatment (Aedes aegypti [4]; day 2) | % mortality on various days following treatment (Aedes aegypti [4]; day 3) | % mortality on various days following treatment (Aedes aegypti [4]; day 4) | % mortality on various days following treatment (Aedes aegypti [2]; day 3) | % mortality on various days following treatment (Aedes aegypti [2]; day 8) |
| --- | --- | --- | --- | --- | --- | --- | --- | --- | --- | --- | --- | --- | --- | --- | --- |
| CC(C)=CCCC(C)CCO (stereo not shown) [Citronellol, citronellol] | 580.00 | 886.04 | 95.00 | 77.50 | 35.00 | 2.50cd % | 1938.19 | 1434.18 | 700.43 | 94.00a % | 61.0b % | 26.0b % | 10.0b % |  |  |
| CC(=O)CC/C=C(\C)CCC=C(C)C [Geranyl acetone, geranyl acetone] | 1227.00 | 716.72 | 91.25 | 83.00 | 32.50 | 5.00c % | 934.62 | 742.61 | 338.61 | 84.00a % | 25.0c % | 8.0c % | 5.0c % | 30.00c % | 17.50c % |
| C=CCCCCCCCCO [Rosalva, rosalva] | 1054.32 | 1022.88 | 95.00 | 87.50 | 35.00 | 0.00d % | 1276.16 | 1262.11 | 500.92 | 58.00b % | 34.0c % | 11.0% | 3.25.c % | 65.00b % | 27.50a % |
